Experimental data published in patent US20120083471A1, “Novel Compounds, Pharmaceutical Compositions Containing Same, Methods of Use for Same, and Methods for Preparing Same” (priority 2008, published 2012).
“Also recorded” adds a separate entry of the source.

Legend:
lean mice = experiment: Acute single-dose FSG67 treatment of lean mice (body weight, food intake); assay type: in vivo; details: single 20 mg/kg ip
Source text: DIO and lean mouse models. All animal experimentation was done in accordance with guidelines on animal care and use as established by the Johns Hopkins University School of Medicine IACUC. DIO C57BL6J male mice were obtained from Jackson Laboratory (Bar Harbor, ME) and fed a synthetic diet comprised of 60% calories from fat, 20% from carbohydrate, and 20% from protein (5.2 kcal/g) post-weaning through the experimental procedures (D12492i, Research Diets, Inc., New Brunswick, N.J.). For lean animal studies, twelve-week old C57BL6J male mice (Jackson Laboratory, Bar Harbor, Me.) were fed rodent chow comprised of 13% calories from fat, 58% from carbohydrate, and 29% from protein (4.1 kcal/g) (Prolab RMH 2500, PMI Nutrition International Inc., Brentwood, Mo.). Mice were maintained in 12 hr light-dark cycle at 25° C. for 1 week for acclimatization prior to treatment. In all studies, FSG67 (FASgen, Inc., Baltimore, Md.) was dissolved in RPMI 1640 (Invitrogen, Carlsbad, Calif.).
For acute studies, 6 DIO or lean mice were treated with a single dose of FSG67 (20 mg/kg, i.p.) approximately 3 hrs past lights-on. Animal weights and food consumption were measured 18 h after treatment. Following euthanization, the hypothalmuses were harvested to measure orexigenic and anorexigenic neuropeptide gene expression. […] Body weight and food intake were measured daily. In one study, a cohort of mice was pair-fed with amounts consumed by the FSG67-treated animals and mice were monitored with indirect calorimetry (Oxymax Equal Flow System®, Columbus Instruments, Columbus, Ohio). Measurements of VO2 (ml/kg/hr) and VCO2 (ml/kg/hr) were performed and recorded every 15 min. The respiratory exchange ratio (RER) was calculated by Oxymax software, version 5.9, and is defined as ratio of VCO2 to VO2 33. […] Tissues were harvested immediately for RNA extraction; serum was collected and analyzed for glucose, cholesterol, and triglyceride measurements (Bioanalytics, Gaithersburg, Md.). […]

[1] = test system: hypothalamic neuropeptide expression; experiment: Real-time RT-PCR of hypothalamic neuropeptides in lean mice after single dose; assay type: in vivo, mouse; details: single 20 mg/kg
Description: For acute studies, 6 DIO or lean mice were treated with a single dose of FSG67 (20 mg/kg, i.p.) approximately 3 hrs past lights-on. Animal weights and food consumption were measured 18 h after treatment. Following euthanization, the hypothalmuses were harvested to measure orexigenic and anorexigenic neuropeptide gene expression. In the chronic studies, DIO mice, 4-10 animals per group, were treated daily with FSG67 (5 mg/kg, i.p.) or with RMPI vehicle for the days indicated. Body weight and food intake were measured daily. In one study, a cohort of mice was pair-fed with amounts consumed by the FSG67-treated animals and mice were monitored with indirect calorimetry (Oxymax Equal Flow System®, Columbus Instruments, Columbus, Ohio). Measurements of VO2 (ml/kg/hr) and VCO2 (ml/kg/hr) were performed and recorded every 15 min. The respiratory exchange ratio (RER) was calculated by Oxymax software, version 5.9, and is defined as ratio of VCO2 to VO2 33. After completion of the treatment course, animals were euthanized by CO2 inhalation 4 hrs following the final dose of FSG67. Tissues were harvested immediately for RNA extraction; serum was collected and analyzed for glucose, cholesterol, and triglyceride measurements (Bioanalytics, Gaithersburg, Md.). Fresh liver tissue was snap frozen in liquid N2, sectioned, and stained with hematoxylin and Oil Red O to visualize triglyceride droplets.
Real-time RT-PCR. Hypothalamus, liver, and WAT of DIO and lean mice were harvested and immediately frozen in liquid nitrogen. Total RNA was isolated and real-time quantitative RT-PCR was performed as previously described (13). Gene-specific primer pairs were designed using Primer3 software (http://www-genome.wi.mit.edu/cgi-bin/primer/primer3_www.cgi/). […]
Acute and chronic FSG67 treatment altered hypothalamic neuropeptide expression. Hypothalamic peptide expression was measured in the lean and DIO mice treated with a single dose of FSG67 (see FIG. 11) and in the chronically treated DIO mice (see FIG. 12) to further asses the mechanism responsible for reduced food intake. […]

SMILES: CCCCCCCCCS(=O)(=O)Nc1ccccc1C(=O)O [Compound 15g, 2-(Nonylsulfonamido)benzoic acid]
- food consumption (lean mice; lean mice): 1.4 ± 0.2 g
- food consumption, % of vehicle control (lean mice; lean mice): 33%
- overt toxicity (lean mice; lean or DIO mice): No overt toxicity
- hypothalamic NPY expression ([1]; compared to fasted mice): significantly reduced
- hypothalamic AGRP expression ([1]; compared to vehicle control and fasted mice, listed as FSG67, 20 mg/kg): substantially diminished
- hypothalamic POMC and CART expression ([1]; listed as FSG67, 20 mg/kg): not affected; also recorded: unaffected
